US20230203041A1, “ANTAGONISTS OF THE ADENOSINE A2A RECEPTOR” (AdoRx Therapeutics Limited, priority 2020, published 2023)

Key:
[1] = molecular target: T1, human Adenosine A2a receptor (Homo sapiens, UniProt P29274); experiment: Adenosine receptor TR-FRET binding assay (CA200645 displacement), A2a; conditions: 100 nM CA200645, CHO cell membranes, 2 hours at room temperature
T1 construct: expressed in transfected cells; host or cells: CHO cell membranes

[2] = molecular target: T2, human Adenosine A2b receptor (Homo sapiens, UniProt P29275); experiment: Adenosine receptor TR-FRET binding assay (CA200645 displacement), A2b; conditions: 30 nM CA200645, CHO cell membranes, 2 hours at room temperature
T2 construct: expressed in transfected cells; host or cells: CHO cell membranes
T2 sequence (P29275 1-332): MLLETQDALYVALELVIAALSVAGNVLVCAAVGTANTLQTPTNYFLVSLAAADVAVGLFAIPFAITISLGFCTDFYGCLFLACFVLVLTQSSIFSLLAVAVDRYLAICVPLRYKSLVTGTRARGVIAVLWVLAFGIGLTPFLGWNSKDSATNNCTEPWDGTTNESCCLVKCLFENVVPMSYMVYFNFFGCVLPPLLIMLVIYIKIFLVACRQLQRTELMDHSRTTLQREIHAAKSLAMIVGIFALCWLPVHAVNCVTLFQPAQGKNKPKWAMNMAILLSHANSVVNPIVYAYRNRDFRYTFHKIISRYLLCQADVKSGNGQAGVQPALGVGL

[3] = test system: human PBMCs; experiment: CD3/CD28 stimulated IL-2 release NECA reversal assay in human PBMCs; assay type: cell-based; conditions: PBMC, CD3/CD28 antibody stimulated, 1 uM NECA, 24 hours, IL-2 in culture supernatant;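 further: dose-response as % inhibition where 100% equals no-NECA control wells with CD3/CD28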
Procedure, shortened: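 PBMCs from citrated donor blood, 50,000 cells/well on plate-bound CD3 antibody (1 ug/ml), with 1 ug/ml CD28 antibody, 1 uM NECA and antagonist at 0.003-10 μM final. After 24 h at 37° C, supernatant IL-2 was measured by MSD immunoassay.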

[4] = test system: CD8+ T cells in human whole blood; experiment: Measurement of pCREB in CD8+ T cells in human whole blood; assay type: cell-based; conditions: T-cell, 1 h; heparinised human whole blood, rolipram, 3 μM NECA, 60 min, phospho-CREB in CD8+ T cells by FACS
Procedure, shortened: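 Heparinised human whole blood preincubated 20 min at 37 °C with serially diluted A2a antagonists plus rolipram, then stimulated 60 min with 3 μM NECA (final). After fixation and RBC lysis, permeabilized leukocytes stained for phospho-CREB and CD8; pCREB in CD8+ T cells read by flow cytometry.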

[5] = molecular target: T3, human Adenosine A1 receptor (Homo sapiens, UniProt P30542); experiment: Adenosine receptor TR-FRET binding assay (CA200645 displacement), A1
T3 sequence (P30542 1-326): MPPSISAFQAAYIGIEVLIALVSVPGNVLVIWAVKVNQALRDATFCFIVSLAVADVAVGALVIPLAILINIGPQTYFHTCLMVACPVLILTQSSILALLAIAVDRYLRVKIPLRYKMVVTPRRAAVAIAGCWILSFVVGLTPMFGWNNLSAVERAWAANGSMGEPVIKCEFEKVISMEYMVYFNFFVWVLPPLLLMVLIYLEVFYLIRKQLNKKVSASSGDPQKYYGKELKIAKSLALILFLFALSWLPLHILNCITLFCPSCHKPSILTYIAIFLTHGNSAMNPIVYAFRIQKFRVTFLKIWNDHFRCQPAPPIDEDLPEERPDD
Experimental: (§1) All FRET binding experiments were conducted at room temperature in white 384-well plates, in assay binding buffer containing 1×LabMed (Cisbio, France), 100 μg/mL saponin, 1% DMSO and 0.02% pluronic acid. Binding of the fluorescently labelled Adenosine receptor antagonist XAC (CA200645, FRET acceptor) to terbium-labelled A1, A2a, A2b and A3 adenosine receptors (FRET donors) was detected by time-resolved FRET due to the close proximity of the donor and acceptor in a binding event. To investigate the ability of unlabelled test compounds to bind to Adenosine A1, A2a, A2b and A3 receptors, dose response curves were constructed that determined the ability of a range of concentrations to inhibit the binding of 30 nM CA200645 to the A2b receptor and 100 nM CA200645 to the A1, A2a, and A3 receptor.
(§2) Serial dilution (1:3 dilutions) of test compounds in neat DMSO and transfer of a 400 nL sample of test compound into the assay plate was carried out using the Mosquito (TTP Labtech, UK). The compound samples were incubated for 2 hours at room temperature with a fixed concentration of CA200645 defined for each receptor (see above) and CHO cell membranes containing the human Adenosine A1 (0.5 μg/well), A2a (0.3 μg/well), A2b (1 μg/well) or A3 (1 μg/well) receptor in 40 μL of assay buffer. Total and non-specific binding of CA200645 was determined in the absence and presence of 10 μM XAC, respectively. Following 2 hours incubation, the level of CA200645 binding was detected on a Pherastar FSX (BMG Labtech, Germany) using standard TR-FRET settings. The terbium donor was excited with three laser flashes at a wavelength of 337 nm, and donor and acceptor emission was detected at 620 nm and 665 nm wavelengths, respectively. FRET ratios were obtained by multiplying the acceptor/donor ratio value by 10,000. Specific binding was determined by subtracting the non-specific binding FRET ratio from the total binding FRET ratio. Compound IC50 curves were analysed using GraphPad Prism 7.0 (GraphPad, USA) and Ki affinity values were determined from the obtained IC50 values using the method of Cheng and Prusoff.

[6] = molecular target: T4, human Adenosine A3 receptor (Homo sapiens, UniProt P0DMS8); experiment: Adenosine receptor TR-FRET binding assay (CA200645 displacement), A3
T4 sequence (P0DMS8 1-318): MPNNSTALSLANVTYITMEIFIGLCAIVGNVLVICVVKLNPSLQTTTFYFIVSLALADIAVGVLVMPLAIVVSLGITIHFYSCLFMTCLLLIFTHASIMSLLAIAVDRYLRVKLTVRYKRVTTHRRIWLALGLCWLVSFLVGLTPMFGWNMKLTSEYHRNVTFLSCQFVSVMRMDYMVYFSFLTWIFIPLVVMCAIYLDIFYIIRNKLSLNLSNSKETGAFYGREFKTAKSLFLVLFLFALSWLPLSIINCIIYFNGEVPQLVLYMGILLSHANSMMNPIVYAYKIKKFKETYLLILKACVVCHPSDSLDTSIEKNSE
Experimental: as §1, §2

T1 sequence (P29274 whole entry): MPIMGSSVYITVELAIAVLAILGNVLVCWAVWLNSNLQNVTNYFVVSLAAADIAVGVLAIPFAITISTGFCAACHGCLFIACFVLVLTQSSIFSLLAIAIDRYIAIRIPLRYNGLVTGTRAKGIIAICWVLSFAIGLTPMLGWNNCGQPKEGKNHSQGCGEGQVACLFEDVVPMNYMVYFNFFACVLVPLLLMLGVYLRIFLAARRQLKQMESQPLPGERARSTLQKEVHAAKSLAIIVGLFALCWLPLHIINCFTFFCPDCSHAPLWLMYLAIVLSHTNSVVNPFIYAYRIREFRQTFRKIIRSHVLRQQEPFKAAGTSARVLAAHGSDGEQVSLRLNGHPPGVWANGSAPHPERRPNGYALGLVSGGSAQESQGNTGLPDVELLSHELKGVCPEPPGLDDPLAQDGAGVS

Ki [1] [nM] | Ki [2] [nM] | IC50 [4] [nM] | Ki [5] [nM] | Ki [6] [nM] | SMILES | IC50 [3] [nM]
0.3 | 22 | 30 | 298 | > 1000 | Cc1cc(-c2c(-c3cccc(C#N)c3C)nn3ccc(C(=O)NCC(C)(C)O)nc23)cc(C)n1 [Example 103, 2-(3-Cyano-2-methyl-phenyl)-3-(2,6-dimethyl-4-pyridyl)-N-(2-hydroxy-2-methyl-propyl)pyrazolo[1,5-a]pyrimidine-5-carboxamide] | 24
0.2 | 1 | 1180 | 10 | 115 | Cc1cc(-c2c(-c3cccc(C#N)c3)nn3ccc(N/C(=N\C#N)NC(C)C)nc23)cc(Cl)n1 [Example 32.1, 1-[3-(2-Chloro-6-methyl-4-pyridyl)-2-(3-cyanophenyl)pyrazolo[1,5-a]pyrimidin-5-yl]-2-cyano-3-isopropyl-guanidine] | 9
0.4 | 37 | 20 | 107 | 1470 | Cc1cc(-c2c(-c3cccc(C#N)c3)nn3ccc(C(=O)N[C@@H](C)C(C)(C)O)nc23)cc(C)n1 [Example 92, 2-(3-Cyanophenyl)-3-(2,6-dimethyl-4-pyridyl)-N-[(1S)-2-hydroxy-1,2-dimethyl-propyl]pyrazolo[1,5-a]pyrimidine-5-carboxamide] | 4
0.4 | 74 | 330 | 223 | > 1000 | Cc1cc(-c2c(-c3cccc(C#N)c3)nn3ccc(C(=O)NC(C)(C)C(C)(C)O)nc23)cc(Cl)n1 [Example 6.23, 3-(2-Chloro-6-methyl-4-pyridyl)-2-(3-cyanophenyl)-N-(2-hydroxy-1,1,2-trimethyl-propyl)pyrazolo[1,5-a]pyrimidine-5-carboxamide] | 5.7
1 | 3 | 1720 | 124 | > 1000 | Cc1cc(-c2c(-c3cccc(C#N)c3)nn3ccc(NC(=O)C(C)(C)O)nc23)cc(Cl)n1 [Example 94, N-[3-(2-Chloro-6-methyl-4-pyridyl)-2-(3-cyanophenyl)pyrazolo[1,5-a]pyrimidin-5-yl]-2-hydroxy-2-methyl-propanamide] | 27
2.9 | 21 | 520 | 5 | 56 | Cc1cc(-c2c(-c3cccc(C#N)c3)nn3ccc(C(=O)NCC(C)(C)O)nc23)ccn1 [Example 12.2, 2-(3-Cyanophenyl)-N-(2-hydroxy-2-methyl-propyl)-3-(2-methyl-4-pyridyl)pyrazolo[1,5-a]pyrimidine-5-carboxamide] | 22
0.3 | 10 | 830 | 122 | 2310 | Cc1cc(-c2c(-c3cccc(C#N)c3)nn3ccc(C(=O)NCC4(O)CC4)nc23)cc(Cl)n1 [Example 6.2, 3-(2-Chloro-6-methyl-4-pyridyl)-2-(3-cyanophenyl)-N-[(1-hydroxycyclopropyl)methyl]pyrazolo[1,5-a]pyrimidine-5-carboxamide] | 8
2.6 | 10 | 1870 | 192 | 2430 | Cc1cc(-c2c(-c3cccc(C#N)c3)nn3ccc(N[C@H]4C[C@H](O)C4)nc23)cc(Cl)n1 [Example 2.18] | 46
0.9 | 330 | 190 | 735 | > 1000 | Cc1cc(-c2c(-c3cccc(C#N)c3C)nn3ccc(C(=O)N[C@H](C)C(C)(C)O)nc23)cc(C)n1 [Example 104, 2-(3-Cyano-2-methyl-phenyl)-3-(2,6-dimethyl-4-pyridyl)-N-[(1R)-2-hydroxy-1,2-dimethyl-propyl]pyrazolo[1,5-a]pyrimidine-5-carboxamide] | 10
0.1 | 12 | 150 | 148 | 1550 | Cc1cc(-c2c(-c3cccc(C#N)c3)nn3ccc(C(=O)NCC(C)(C)O)nc23)cc(C(F)F)n1 [Example 12.4, 2-(3-Cyanophenyl)-3-[2-(difluoromethyl)-6-methyl-4-pyridyl]-N-(2-hydroxy-2-methyl-propyl)pyrazolo[1,5-a]pyrimidine-5-carboxamide] | 4
1.4 | 8 | 1050 | 116 | 2600 | Cc1cc(-c2c(-c3cccc(C#N)c3)nn3ccc(NC(=N)N)nc23)cc(Cl)n1 [Example 16.1, 1-[3-(2-Chloro-6-methyl-4-pyridyl)-2-(3-cyanophenyl)pyrazolo[1,5-a]pyrimidin-5-yl]guanidine] | 77
1.3 | 3 | 610 | 62 | > 1000 | Cc1cc(-c2c(-c3cccc(C#N)c3)nn3ccc(NCC4(O)COC4)nc23)cc(Cl)n1 [Example 2.8] | 41
0.6 | 30 | 430 | 402 | 1820 | Cc1cc(-c2c(-c3cccc(C#N)c3)nn3ccc(C(=O)N[C@H](C)C(C)(C)O)nc23)cc(Cl)n1 [Example 6.4, 3-(2-Chloro-6-methyl-4-pyridyl)-2-(3-cyanophenyl)-N-[(1 R)-2-hydroxy-1,2-dimethyl-propyl]pyrazolo[1,5-a]pyrimidine-5-carboxamide] | 6
0.5 | 4 | 110 | 222 | > 1000 | Cc1cc(-c2c(-c3cccc(C#N)c3)nn3ccc(C(=O)NCC(C)(O)CO)nc23)cc(C)n1 (stereo not drawn) [Example 92.1] | 14
4.6 | 19 | 1240 | 178 | > 1000 | Cc1cc(-c2c(-c3cccc(C#N)c3)nn3ccc(N4CCOC(CCN(C)C)C4)nc23)cc(Cl)n1 (stereo not drawn) [Example 2.21] | 31
0.1 | 3 | 1570 | 15 | > 1000 | Cc1cc(-c2c(-c3cccc(C#N)c3)nn3ccc(NC4CCNCC4)nc23)cc(Cl)n1 [Example 4, 3-[3-(2-Chloro-6-methyl-4-pyridyl)-5-(4-piperidylamino)pyrazolo[1,5-a]pyrimidin-2-yl]benzonitrile] | 8
0.7 | 19 | 560 | 204 | > 1000 | Cc1cc(-c2c(-c3cccc(C#N)c3)nn3ccc(C(=O)N[C@H]4C[C@@H](O)C4)nc23)cc(Cl)n1 [Example 6.20, 3-(2-Chloro-6-methyl-4-pyridyl)-2-(3-cyanophenyl)-N-(cis-3-hydroxycyclobutyl)pyrazolo[1,5-a]pyrimidine-5-carboxamide] | 36.3
2 | 7 | 260 | 212 | > 1000 | Cc1cc(-c2c(-c3cccc(C#N)c3)nn3ccc(C(=O)NCC4(O)COC4)nc23)cc(C)n1 [Example 92.3] | 11
1.8 | 14 | 750 | 99 | > 1000 | CC(=O)Nc1ccn2nc(-c3cccc(C#N)c3)c(-c3cc(C)nc(Cl)c3)c2n1 [Example 94.1, N-[3-(2-Chloro-6-methyl-4-pyridyl)-2-(3-cyanophenyl)pyrazolo[1,5-a]pyrimidin-5-yl]acetamide] | 26
